Like-named read-outs stand apart in the source and are kept apart here.

One data set relates to HIV-1 strain 92HT599. In words: Antiviral activity: p24 estimation in MT2 cells infected with HIV-1 strain 92HT599. It is filed as cell-based. The conditions noted are these: Human immunodeficiency virus 1, MT2 cells, HIV-1 92HT599, ~96 hours, p24; for inhibition at 0.1 µM: 100 nM, read-out: Antiviral activity % inhibition 100 nM; for inhibition at 1 µM: 1000 nM, read-out: Antiviral activity % inhibition 1000 nM. The method, then: MT2 cells were infected with HIV-1 strain 92HT599 (10 TCID 50/30000 cells). The infected cells were plated at the concentration of […] cells per well in 96 well plate. Test compound was added to the micro plate in defined format with the final concentration of DMSO (vehicle) is not more than 1%. Incubation was carried out in CO2 incubator for ˜96 hours for viral infection. At the end of incubation period an aliquot from each well was taken for p24 estimation. The quantitation of p24 is an index for antiviral activity of the compound. Percent inhibition was calculated with reference to control values (vehicle controls).
p-24 estimation was carried out using Advance biosciences kit as per the procedure detailed by supplier.

A short description of data set [1]: Cyto-toxicity assay (MTT) in MT2 cells without virus. It is filed as cell-based. As to conditions: human. The method, then:
For cyto-toxicity assay the same amount of MT2 cells as in antiviral assay without virus was added to the 96 well plates. The cyto-toxicity was measured using MTT reagent in parallel with p24 estimation. The percent viability is calculated in comparison with vehicle control.

The nature of data set [2]: Single dose oral pharmacokinetic study in mice. As to conditions: for AUC(0-inf) / Cmax / Tmax / AUC(0-t): mouse, plasma. It is filed as in vivo. The protocol:
The test item was administered through oral route to animals (rat/mice) at 30 mg/kg dose in a suitable vehicle at 10 ml/kg dose volume. Blood samples (˜50 uL at each time point) were collected from retro-orbital plexus using K3 EDTA as anticoagulant in eppendorf tubes at defined time intervals under light ether anesthesia. The samples were centrifuged at 3500×g to separate plasma and stored at −80° C. until analysis.
Sample analysis: Test samples were analyzed using LC-MS-MS after developing fit-for-purpose method for each of test compound.

The mark [3] stands for this setting: Oral PK @ 30 mg/ kg dose in mice (Table 6).
[4] abbreviates: Oral PK @ 30 mg/ kg dose in mice (Table 6), read-out: AUCt.
Setting [5] is: Mice oral PK @30 mg/kg (Table 5).

`CC1([C@@H]2CC[C@]3(C(=O)N4CCN(CCCN5CCOCC5)CC4)CC[C@]4(C)[C@H](CC[C@@H]5[C@@]6(C)CC[C@H](OC(=O)[C@H]7C[C@@H](C(=O)O)C7(C)C)C(C)(C)[C@@H]6CC[C@]54C)[C@@H]23)CC1` [Example 34]: in the data set on HIV-1 strain 92HT599, the inhibition (as a rule, how much of the control response was suppressed) at 0.1 µM is 100% and the inhibition at 1 µM was 100%. In data set [1], the viability – broadly, a read-out of living cells in per cent, often relative to untreated cells – at 100 nM is 100% and the viability at 1000 nM stood at 91%. In addition, in data set [2] (setting [3]), the Tlast came out at 48 h; the AUC(0-inf) – broadly, total exposure, with the tail of the curve extrapolated – was 240 µg·h/mL; the Cmax (as a rule, the peak of the concentration-time curve) is 9200 ng/mL; the Tmax (as a rule, the time at which the peak concentration occurs) was 6.5 h. Also, the AUC(0-t) in data set [2] (setting [4]) was 214 µg·h/mL.

As to `CC(C)(CC(=O)O[C@H]1CC[C@]2(C)[C@H]3CC[C@@H]4[C@H]5[C@H](C6(C)CC6)CC[C@]5(C(=O)N5CCN(CCN6CCOCC6)CC5)CC[C@@]4(C)[C@]3(C)CC[C@H]2C1(C)C)C(=O)O` [Example 31, 2,2-dimethyl-4-oxo-4-(((1R,3aS,5aR,5bR,7aR,9S,11aR,11bR,13aR,13bR)-5a,5b,8,8,11a-pentamethyl-1-(1-methylcyclopropyl)-3a-(4-(2-morpholinoethyl)piperazine-1-carbonyl)icosahydro-1H-cyclopenta[a]chrysen-9-yl)oxy)butanoic acid], in the data set on HIV-1 strain 92HT599, the inhibition at 0.1 µM is 99% and the inhibition at 1 µM was 99%. Also, in data set [1], the viability at 100 nM worked out at 100% and the viability at 1000 nM amounted to 95%. Also, in data set [2] (setting [3]), the Tlast was found to be 48 h, the AUC(0-inf) came out at 240 µg·h/mL, the Cmax turned out to be 9200 ng/mL and the Tmax came out at 6.5 h. In addition, the AUC(0-t) in data set [2] (setting [4]) was 214 µg·h/mL.

Consider `COCCOCCN1CCN(C(=O)[C@]23CC[C@@H](C4(C)CC4)[C@@H]2[C@H]2CC[C@@H]4[C@@]5(C)CC[C@H](OC(=O)CC(C)(C)C(=O)O)C(C)(C)[C@@H]5CC[C@@]4(C)[C@]2(C)CC3)CC1` [Example 39, 4-(((1R,3aS,5aR,5bR,7aR,9S,11aR,11bR,13aR,13bR)-3a-(4-(2-(2-methoxyethoxyl)ethyl)piperazine-1-carbonyl)-5a,5b,8,8,11a-pentamethyl-1-(1-methylcyclopropyl)icosahydro-1H-cyclopenta[a]chrysen-9-yl)oxy)-2,2-dimethyl-4-oxobutanoic acid], for which, in the data set on HIV-1 strain 92HT599, the inhibition at 0.1 µM is 97% and the inhibition at 1 µM was 99%. In data set [1], this molecule displayed a viability at 100 nM of 83% and a viability at 1000 nM of 88%. For the same molecule, in data set [2] (setting [3]), the Tlast is 48 h, the AUC(0-inf) worked out at 119 µg·h/mL, the Cmax was 7000 ng/mL and the Tmax is 4 h. For the same molecule, the AUC(0-t) in data set [2] (setting [4]) was determined as 111 µg·h/mL.

With `CC(C)(CC(=O)O[C@H]1CC[C@]2(C)[C@H]3CC[C@@H]4[C@H]5[C@H](C6(C)CC6)CC[C@]5(C(=O)N5CCC(C(=O)NCCN6CCOCC6)CC5)CC[C@@]4(C)[C@]3(C)CC[C@H]2C1(C)C)C(=O)O` [Example 49, 2,2-dimethyl-4-oxo-4-(((1R,3aS,5aR,5bR,7aR,9S,11aR,11bR,13aR,13bR)-5a,5b,8,8,11a-pentamethyl-1-(1-methylcyclopropyl)-3a-(4-((2-morpholinoethyl)carbamoyl)piperidine-1-carbonyl)icosahydro-1H-cyclopenta[a]chrysen-9-yl)oxy)butanoic acid], in the data set with HIV-1 strain 92HT599, the inhibition at 0.1 µM is 99% and the inhibition at 1 µM was 98%. Moreover, in data set [1], the viability at 100 nM came out at 85% and the viability at 1000 nM came out at 88%. Further, in data set [2] (setting [3]), the Tlast worked out at 48 h, the AUC(0-inf) was 38.8 µg·h/mL, the highest level (Cmax) was 5600 ng/mL and the Tmax turned out to be 1.3 h. Further, the AUC(0-t) in data set [2] (setting [4]) amounted to 38.7 µg·h/mL.

Turning to `CCN1CCN(C(=O)[C@]23CC[C@@H](C4(C)CC4)[C@@H]2[C@H]2CC[C@@H]4[C@@]5(C)CC[C@H](OC(=O)CC(C)(C)CC(=O)O)C(C)(C)[C@@H]5CC[C@@]4(C)[C@]2(C)CC3)CC1` [Example 26, 5-(((1R,3aS,5aR,5bR,7aR,9S,11aR,11bR,13aR,13bR)-3a-(4-ethylpiperazine-1-carbonyl)-5a,5b,8,8,8,11a-pentamethyl-1-(1-methylcyclopropyl)icosahydro-1H-cyclopenta[a]chrysen-9-yl)oxy)-3,3-dimethyl-5-oxopentanoic acid], in the data set on HIV-1 strain 92HT599, the inhibition at 0.1 µM was 94% and the inhibition at 1 µM is 99%. In data set [1], the viability at 100 nM was found to be 100% and the viability at 1000 nM came to 99%. In data set [2] (setting [3]), the Tlast was 24 h, the AUC(0-inf) stood at 151 µg·h/mL, the peak level (Cmax) was 6900 ng/mL and the Tmax was 3.5 h. Further, in data set [2] (setting [4]), the AUC(0-t) was 99.4 µg·h/mL.

On to `CCN1CCN(C(=O)[C@]23CC[C@@H](C4(C)CC4)[C@@H]2[C@H]2CC[C@@H]4[C@@]5(C)CC[C@H](OC(=O)[C@H]6C[C@@H](C(=O)O)C6(C)C)C(C)(C)[C@@H]5CC[C@@]4(C)[C@]2(C)CC3)CC1` [Example 13, (1R,3S)-3-(((1R,3aS,5aR,5bR,7aR,9S,11aR,11bR,13aR,13bR)-3a-(4-ethylpiperazine-1-carbonyl)-5a,5b,8,8,11a-pentamethyl-1-(1-methylcyclopropyl)icosahydro-1H-cyclopenta[a]chrysen-9-yloxy)carbonyl)-2,2-dimethylcyclobutanecarboxylic acid], for which, in the data set with HIV-1 strain 92HT599, the inhibition at 0.1 µM is 83% and the inhibition at 1 µM is 99%. In data set [1], this molecule registered a viability at 100 nM of 86% and a viability at 1000 nM of 79%. Also, in data set [2] (setting [5]), the peak level (Cmax) was 12000 ng/mL and the Tmax is 20 h. Besides, the AUC(0-t) in data set [2] (Mice oral PK @30 mg/kg (Table 5), read-out: AUC 0-t) was found to be 456 µg·h/mL.

With `CC1([C@@H]2CC[C@]3(C(=O)N4CCC(C(=O)NCCN5CCOCC5)CC4)CC[C@]4(C)[C@H](CC[C@@H]5[C@@]6(C)CC[C@H](OC(=O)[C@H]7C[C@@H](C(=O)O)C7(C)C)C(C)(C)[C@@H]6CC[C@]54C)[C@@H]23)CC1` [Example 50, (1R,3S)-2,2-dimethyl-3-((((1R,3aS,5aR,5bR,7aR,9S,11aR,11bR,13aR,13bR)-5a,5b,8,8,11a-pentamethyl-1-(1-methylcyclopropyl)-3a-(4-((2-morpholinoethyl)carbamoyl)piperidine-1-carbonyl)icosahydro-1H-cyclopenta[a]chrysen-9-yl)oxy)carbonyl)cyclobutane-1-carboxylic acid], in the data set with HIV-1 strain 92HT599, the inhibition at 0.1 µM is 99% and the inhibition at 1 µM is 99%. Moreover, in data set [1], the viability at 100 nM worked out at 86% and the viability at 1000 nM was 96%. Moreover, in data set [2] (setting [3]), the Tlast was determined as 48 h, the AUC(0-inf) is 171 µg·h/mL, the highest level (Cmax) was 9100 ng/mL and the Tmax amounted to 6 h. Also, the AUC(0-t) in data set [2] (setting [4]) was found to be 164 µg·h/mL.

On to `C=C(C)[C@@H]1CC[C@]2(C(=O)N[C@@H]3C[C@H](c4nnc(C)o4)C3(C)C)CC[C@]3(C)[C@H](CC[C@@H]4[C@@]5(C)CC[C@H](OC(=O)[C@H]6C[C@@H](C(=O)O)C6(C)C)C(C)(C)[C@@H]5CC[C@]43C)[C@@H]12` [Example 21, (1R,3S)-3-(((1R,3aS,5aR,5bR,7aR,9S,11aR,11bR,13aR,13bR)-3a-((1R,3S)-2,2-dimethyl-3-(5-methyl-1,3,4-oxadiazol-2-yl)cyclobutylcarbamoyl)-5a,5b,8,8,11a-pentamethyl-1-(prop-1-en-2-yl)icosahydro-1H-cyclopenta[a]chrysen-9-yloxy)carbonyl)-2,2-dimethylcyclobutane carboxylicacid], for which, in the data set with HIV-1 strain 92HT599, the inhibition at 0.1 µM is 100% and the inhibition at 1 µM was 100%. Moreover, in data set [1], the viability at 100 nM came to 94% and the viability at 1000 nM amounted to 96%. In addition, in data set [2] (setting [3]), the Tlast worked out at 24 h, the total exposure AUC(0-inf) came to 185 µg·h/mL, the peak level (Cmax) was 5900 ng/mL and the Tmax was 7 h. Moreover, in data set [2] (setting [4]), the AUC(0-t) is 95.5 µg·h/mL.

In the case of `[2H]C([2H])([2H])C(CC(=O)O[C@H]1CC[C@]2(C)[C@H]3CC[C@@H]4[C@H]5[C@H](C6(C)CC6)CC[C@]5(C(=O)N5CCN(CC)CC5)CC[C@@]4(C)[C@]3(C)CC[C@H]2C1(C)C)(C(=O)O)C([2H])([2H])[2H]` [Example 30], in the data set with HIV-1 strain 92HT599, the inhibition at 0.1 µM was 97% and the inhibition at 1 µM is 99%. For the same molecule, in data set [1], the viability at 100 nM stood at 83% and the viability at 1000 nM was determined as 82%. Further, in data set [2] (setting [3]), the Tlast is 48 h, the AUC(0-inf) is 78.5 µg·h/mL, the concentration peaked (Cmax) at 4700 ng/mL and the Tmax is 3.5 h. Besides, in data set [2] (setting [4]), the AUC(0-t) is 67.1 µg·h/mL.

Source of the values: US20150119373A1, “NOVEL BETULINIC ACID DERIVATIVES AS HIV INHIBITORS” (HETERO RESEARCH FOUNDATION, priority 2012, published 2015).
